Assay [1] has as its system acetic acid induced bladder hypermotility (frequency of bladder contraction reflexes). The assay can be described thus: Epidural infusion of bupivacaine in rat model of bladder pain, intravesical acetic acid infusion. In kind it is in vivo. To be noted: epidural infusion 25 μg/day. As to the method: FIG. 6 is a graphic representation of epidural infusion of bupivacaine in rats treated with an intravesical infusion of acetic acid as described in Example 4. Baseline bladder activity was measured before epidural drug treatment. The columns and error bars represent the mean and SEM values of 10 rats per group. Asterisks indicate statistically significant dose effects compared to baseline as determined by post-hoc Dunnett Multiple Comparison Test.
(§1) An animal model that has been used frequently to study pelvic pain conditions is a rat model of bladder pain. In this model, a female rat was lightly anesthetized with isoflurane and a transurethral catheter was placed into the bladder. The catheter was connected to a pressure transducer so that the pressure within the bladder could be continuously monitored and recorded over time. Fluid was continuously infused into the bladder using a syringe pump at a rate of 0.1 mL/min to cause the bladder to contract repeatedly each time it became full. This is referred to as a volume-evoked micturition reflex or contraction. […]
In order to evaluate the effects of epidurally administered analgesics on normal and painful bladder activity (frequency of reflex bladder contractions), test drugs were continuously administered via an epidural catheter with the tip placed in the mid-lumbar epidural space. […] In the experiments depicted in FIGS. 5 and 6, the baseline bladder activity was measured before implanting the epidural infusion system, the infusion system was implanted on day 0 and cystometrograms were recorded on three consecutive days during which bupivacaine (25 μg/day) was infused into the lumbar epidural space.
Bupivacaine at 25 μg/day reduced acetic acid induced bladder hypermotility by approximately 3 fold on days 2 and 3. The frequency of bladder contraction observed during acetic acid infusion and epidural bupivacaine administration was similar to the baseline bladder activity measured during saline infusion (0.206±0.046 day 3 acetic acid and epidural bupivacaine vs 0.295±0.035 baseline saline).

The subject of assay [2] is normal bladder activity (frequency of reflex bladder contractions). The assay can be described thus: Epidural infusion of bupivacaine in rats, intravesical saline infusion (normal bladder activity, cystometrogram). In kind it is in vivo, rat. To be noted: epidural infusion 25 μg/day, saline infusion into bladder. As to the method: FIG. 5 is a graphic representation of epidural infusion of bupivacaine in rats treated with an intravesical infusion of saline. Baseline bladder activity was measured before epidural drug treatment as described in Example 4. The columns and error bars represent the mean and SEM values of 10 rats per group. Asterisks indicate statistically significant dose effects compared to baseline as determined by post-hoc Dunnett Multiple Comparison Test.
as §1, with “contraction. A repeated series of bladder contractions (pressure spikes) over time was collected using this method. To mimic normal bladder activity, 0.9% saline was infused into the bladder; to mimic painful bladder activity, a dilute solution of acetic acid (0.5%) was infused into the bladder.” for “contraction.”

SMILES strings stand for the structures.

For `CCCCN1CCCCC1C(=O)Nc1c(C)cccc1C` (centres unmarked) [bupivacaine, 1-butyl-N-(2,6-dimethylphenyl)piperidine-2-carboxamide], in assay [1] (0.5% acetic acid infusion into bladder, all three days), the “frequency of bladder contraction reflexes vs baseline” value was “significantly reduced”. Also, the “frequency of bladder contraction” value in assay [1] (acetic acid infusion, day 3, mean ± SEM) amounted to 0.206±0.046 reflexes per min. Also, in assay [1] (days 2 and 3), the “reduction of acetic acid induced bladder hypermotility” value was “approximately 3 fold”. For the same molecule, the “effects on normal bladder activity measured during saline infusion” value in assay [2] (day 1, vs baseline) is “minimal effects”. Further, in assay [2] (days two and three), the “contraction rate relative to the baseline reflex contraction rate” value is on record as “statistically significant reductions”.

For the origin of these results see patent US8956642B2, “Bupivacaine formulation in a polyorthoester carrier” (Medtronic, Inc., priority 2008, dated 2015).
